Active and inactive are the calls of the source. The calls are words filed in the database; no cut-off is given here.
Experiments:
[1] = molecular target: Annexin A2 (Homo sapiens) (UniProt P07355); test: Competitive binding affinity to human annexin A2 in human A549 cell lysate at 10 uM for 30 mins followed by GOYA-P treatment for 30 mins by DTB-Cy3 dye based SDS-PAGE analysis; format: subcellular; settings: time 60.0 min
[2] = molecular target: T1, Importin-5 (Homo sapiens) (UniProt O00410); test: Competitive binding affinity to human IPO5 in human PC-3 cell lysate at 10 uM for 30 mins followed by GOYA-P treatment for 30 mins by DTB-Cy3 dye based SDS-PAGE analysis; format: subcellular; settings: time 60.0 min
T1 sequence (whole entry): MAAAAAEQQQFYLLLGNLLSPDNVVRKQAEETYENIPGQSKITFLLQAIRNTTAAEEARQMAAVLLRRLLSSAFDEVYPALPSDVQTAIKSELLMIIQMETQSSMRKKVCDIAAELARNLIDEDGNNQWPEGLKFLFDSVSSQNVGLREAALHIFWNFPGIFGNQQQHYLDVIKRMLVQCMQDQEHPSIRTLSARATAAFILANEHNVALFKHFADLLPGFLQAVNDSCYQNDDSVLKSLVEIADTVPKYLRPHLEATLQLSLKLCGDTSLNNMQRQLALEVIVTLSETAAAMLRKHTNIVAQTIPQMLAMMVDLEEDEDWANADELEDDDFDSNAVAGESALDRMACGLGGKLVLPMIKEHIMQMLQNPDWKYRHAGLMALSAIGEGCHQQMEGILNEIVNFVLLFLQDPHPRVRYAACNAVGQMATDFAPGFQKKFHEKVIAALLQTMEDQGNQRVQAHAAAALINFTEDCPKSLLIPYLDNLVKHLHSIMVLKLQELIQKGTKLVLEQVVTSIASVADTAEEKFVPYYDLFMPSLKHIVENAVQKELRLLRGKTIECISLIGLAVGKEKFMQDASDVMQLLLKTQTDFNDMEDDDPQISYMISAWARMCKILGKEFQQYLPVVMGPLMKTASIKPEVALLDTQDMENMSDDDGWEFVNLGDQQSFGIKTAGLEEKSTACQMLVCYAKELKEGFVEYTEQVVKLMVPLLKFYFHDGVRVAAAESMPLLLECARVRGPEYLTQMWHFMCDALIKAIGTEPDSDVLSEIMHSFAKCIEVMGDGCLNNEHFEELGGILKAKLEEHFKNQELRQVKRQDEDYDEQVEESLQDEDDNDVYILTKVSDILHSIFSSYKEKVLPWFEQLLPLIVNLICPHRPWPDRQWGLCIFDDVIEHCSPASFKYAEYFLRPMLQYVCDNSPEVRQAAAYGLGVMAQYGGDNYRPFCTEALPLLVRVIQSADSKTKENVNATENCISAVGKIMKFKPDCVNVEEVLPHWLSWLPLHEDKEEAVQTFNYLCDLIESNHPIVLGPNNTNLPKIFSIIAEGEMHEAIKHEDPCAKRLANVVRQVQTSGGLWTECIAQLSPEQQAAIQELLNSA

A549 [3] = test: Cytotoxicity against human A549 cells assessed as reduction in cell viability at 1 uM for 10 hrs by Hoechst 33342 staining based fluorescence microscopy; format: toxicity; settings: a549, 10 h
Influenza A virus [4] = test: Antiviral activity against drug treated Influenza A virus strain A/Netherlands/604/2009 cell lysate infected in dog MDCK cells assessed as reduction in viral replication at 1 uM and measured after 8 hr by crystal violet staining based plaque assay; format: functional, organism-based
[5] = molecular target: T1, Importin-5 (Homo sapiens); test: Binding affinity to human IPO5 in human PC-3 cell lysate incubated for 30 mins by DTB-Cy3 dye based pull down analysis; format: subcellular
A549 [6] = test: Upregulation of HO-1 expression in human A549 cells at 1 uM for 2 to 6 hrs by western blot analysis; format: functional, cell-based; settings: time 2-6 hrs
Influenza A virus [7] = test: Antiviral activity against drug treated Influenza A virus strain A/Netherlands/604/2009 cell lysate infected in dog MDCK cells assessed as reduction in viral replication at 500 nM and measured after 8 hr by crystal violet staining based plaque assay; format: functional, organism-based
[8] = molecular target: Heat shock protein HSP90 (Homo sapiens) (UniProt P07900+P08238); test: Binding affinity to recombinant human HSP90 at 10 uM by Western blotting based pull-down assay; format: protein assay
[9] = molecular target: T1, Importin-5 (Homo sapiens); test: Competitive binding affinity to human IPO5 in human PC-3 cell lysate at 10 uM for 30 mins followed by GOYA-P treatment for 30 mins by DTB-Cy3 dye based pull-down assay; format: subcellular; settings: time 60.0 min
[10] = molecular target: T1, Importin-5 (Homo sapiens); test: Binding affinity to human IPO5 in human PC-3 cell lysate assessed as inhibition of IPO5 interaction with NLS PB1 cargo protein from Influenza A virus at 10 uM for 30 mins by pull-down assay; format: subcellular
Influenza A virus [11] = test: Antiviral activity against Influenza A virus strain A/Netherlands/604/2009 infected in human A549 cells assessed as reduction in influenza virus nucleoprotein production at 1 to 10 uM preincubated for 40 mins followed by virus infection and measured after 4 to 6 hrs by Western blot analysis; format: functional, organism-based; settings: dose 1-10 µM, time 280-400 min
Influenza A virus [12] = test: Antiviral activity against Influenza A virus strain A/Netherlands/604/2009 infected in human A549 cells assessed as reduction in influenza virus nucleoprotein production at 2.5 uM preincubated for 40 mins followed by virus infection and measured after 4 to 6 hrs by Western blot analysis; format: functional, organism-based; settings: time 280-400 min
Influenza A virus [13] = test: Antiviral activity against Influenza A virus strain A/Netherlands/604/2009 infected in human A549 cells assessed as reduction in influenza virus nucleoprotein production at 1 uM preincubated for 40 mins followed by virus infection and measured after 4 to 6 hrs by Western blot analysis; format: functional, organism-based; settings: time 280-400 min
Vimentin (Homo sapiens) [14] = molecular target: Vimentin (Homo sapiens) (UniProt P08670); test: Competitive binding affinity to human Vimentin in human PC-3 cell lysate at 10 uM for 30 mins followed by WA-P1 treatment for 30 mins by SDS gel Cy3 fluorescence based MS/MS analysis; format: subcellular; settings: time 60.0 min
Sequence of Vimentin (Homo sapiens) (P08670 whole entry): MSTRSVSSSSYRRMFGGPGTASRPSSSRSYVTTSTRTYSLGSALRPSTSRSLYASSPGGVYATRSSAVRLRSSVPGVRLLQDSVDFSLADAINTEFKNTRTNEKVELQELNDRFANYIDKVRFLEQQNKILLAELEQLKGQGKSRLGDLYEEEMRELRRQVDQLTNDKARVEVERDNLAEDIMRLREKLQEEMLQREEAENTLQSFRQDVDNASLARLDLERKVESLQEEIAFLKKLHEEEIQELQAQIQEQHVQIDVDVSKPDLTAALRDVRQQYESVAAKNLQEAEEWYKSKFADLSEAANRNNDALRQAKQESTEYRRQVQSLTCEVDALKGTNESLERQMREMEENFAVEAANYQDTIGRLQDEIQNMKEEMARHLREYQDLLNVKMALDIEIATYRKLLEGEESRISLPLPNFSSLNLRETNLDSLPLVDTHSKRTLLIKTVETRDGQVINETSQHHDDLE

Vimentin (Homo sapiens) [15] = molecular target: Vimentin (Homo sapiens) (UniProt P08670); test: Competitive binding affinity to human Vimentin in human PC-3 cell lysate at 10 uM for 30 mins followed by WA-P2 treatment for 30 mins by SDS gel Cy3 fluorescence based MS/MS analysis; format: subcellular; settings: time 60.0 min

Sequence of Annexin A2 (Homo sapiens) (P07355 whole entry): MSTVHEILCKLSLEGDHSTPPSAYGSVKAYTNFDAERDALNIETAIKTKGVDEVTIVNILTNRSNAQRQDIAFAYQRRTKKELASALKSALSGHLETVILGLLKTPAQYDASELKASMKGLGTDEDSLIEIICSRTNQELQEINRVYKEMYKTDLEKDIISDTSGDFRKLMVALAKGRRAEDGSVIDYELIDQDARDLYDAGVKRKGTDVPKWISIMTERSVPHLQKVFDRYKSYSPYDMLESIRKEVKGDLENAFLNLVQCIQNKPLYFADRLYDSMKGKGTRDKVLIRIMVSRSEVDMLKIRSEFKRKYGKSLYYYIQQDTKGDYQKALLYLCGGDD

Row | SMILES | Activity [1] | Activity [2] | Activity (A549 [3]) | Activity (Influenza A virus [4]) | Activity (A549 [6]) | Activity (Influenza A virus [7]) | Activity [8] | also measured
1 | C=C(C)C(=O)O[C@H]1C[C@@]2(C)OC(=CC2=O)/C(CO)=C\[C@H]2OC(=O)C(=C)[C@H]12 [GOIAZENSOLIDE] | Active | Active | Non-Toxic | Active | – | – | – | –
2 | C#CCOCC(=C)C(=O)O[C@H]1C[C@@]2(C)OC(=CC2=O)/C(CO)=C\[C@H]2OC(=O)C(=C)[C@H]12 | – | – | – | – | – | – | – | Activity [5]: Active
3 | COC(=O)[C@]12CCC(C)(C)C[C@@H]1[C@H]1C(=O)C=C3[C@@]4(C)C=C(C#N)C(=O)C(C)(C)[C@@H]4CC[C@@]3(C)[C@]1(C)CC2 | – | – | – | Active | Active | – | – | –
4 | C#CCCC(=O)OCC1=C(C)CC([C@@H](C)[C@H]2CC[C@H]3[C@@H]4C[C@H]5O[C@]56[C@@H](O)C=CC(=O)[C@]6(C)[C@H]4CC[C@]23C)OC1=O (stereo partly drawn) | – | – | Non-Toxic | Active | – | Active | Active | –
5 | CC1=C(CO)C(=O)O[C@@H]([C@@H](C)[C@H]2CC[C@H]3[C@@H]4C[C@H]5O[C@]56[C@@H](O)C=CC(=O)[C@]6(CO)[C@H]4CC[C@]23C)C1 | Active | Active | Non-Toxic | Active | Active | Active | – | Activity [9]: Active; Activity [10]: Active; Activity (Influenza A virus [11]): Active; Activity (Influenza A virus [12]): Active; Activity (Influenza A virus [13]): Active; Activity (Vimentin (Homo sapiens) [14]): Active; Activity (Vimentin (Homo sapiens) [15]): Active
6 | C#CCCC(=O)O[C@H]1C=CC(=O)[C@]2(C)[C@H]3CC[C@]4(C)[C@@H]([C@H](C)C5CC(C)=C(CO)C(=O)O5)CC[C@H]4[C@@H]3C[C@H]3O[C@]132 (stereo partly drawn) | – | – | Non-Toxic | Active | – | Active | Active | –

Source: ChEMBL document CHEMBL5113457, “Withaferin A, a polyfunctional pharmacophore that includes covalent engagement of IPO5, is an inhibitor of influenza A replication” (Bioorg Med Chem, 2022)
